# Results taken from patent US4439426A, “Semisynthetic macrolidic antibiotics, intermediate compounds for their preparation and related pharmaceutical compositions containing them” (priority 1981, dated 1984).
# Where two headings read alike, the source gives them in different places.
# Legend:
# Format in all cases: cell-based
# [1] = system: Acholeplasma laidlawii ATCC 23206 LRP 204; assay: Bacteriostatic power in solid medium (MIC); settings: solid medium; for MIC: Acholeplasma laidlawii, ATCC23206, read-out: Minimum inhibiting concentration
# Text: (§1) the bacteriostatic power, expressed as the minimum inhibiting concentration (MIC) against both aerobic and anaerobic, Gram positive and Gram negative, bacterial stocks: the related results are reported in the tables 2 and 3.
# Bacillus subtilis LRP 25 = assay: Bacteriostatic power in solid medium (MIC); settings: solid medium; for MIC: Bacillus subtilis, LRP25, read-out: Minimum inhibiting concentration
# Text: as §1
# [2] = system: Bacteroides fragilis ATCC 23745 LRP 205; assay: Bacteriostatic power in solid medium (MIC); settings: solid medium, anaerobic; for MIC: Bacteroides fragilis, ATCC23745, read-out: Minimum inhibiting concentration
# Text: as §1
# [3] = system: Corynebacterium diphteriae LRP 24; assay: Bacteriostatic power in solid medium (MIC); settings: solid medium; for MIC: Corynebacterium, LRP24, read-out: Minimum inhibiting concentration
# Text: as §1
# Escherichia coli LRP 50 = assay: Bacteriostatic power in solid medium (MIC); settings: solid medium; for MIC: Escherichia coli, LRP50, read-out: Minimum inhibiting concentration
# Text: as §1
# [4] = system: Fusobacteriumnecrophroum ATCC 27852 LRP 210; assay: Bacteriostatic power in solid medium (MIC); settings: solid medium, anaerobic; for MIC: read-out: Minimum inhibiting concentration
# Text: as §1
# [5] = system: Haemophilus influenzae ATCC 19418 LRP 213; assay: Bacteriostatic power in solid medium (MIC); settings: for MIC: Haemophilus influenzae, ATCC19418, read-out: Minimum inhibiting concentration
# Text: as §1
# [6] = system: Klelsiella pneumoniae LRP 54; assay: Bacteriostatic power in solid medium (MIC); settings: solid medium; for MIC: read-out: Minimum inhibiting concentration
# Text: as §1
# [7] = system: Micrococcus luteus ATCC 15957 LRP 193; assay: Bacteriostatic power in solid medium (MIC); settings: solid medium, Erythromycin resistant; for MIC: Micrococcus luteus, ATCC15957, read-out: Minimum inhibiting concentration
# Text: as §1
# [8] = system: Micrococcus luteus ATCC 9341 LRP 6; assay: Bacteriostatic power in solid medium (MIC); settings: solid medium; for MIC: Micrococcus luteus, ATCC9341, read-out: Minimum inhibiting concentration
# Text: as §1
# [9] = system: Mycoplasma hominis I ATCC 14027 LRP 211; assay: Bacteriostatic power in solid medium (MIC); settings: solid medium; for MIC: Metamycoplasma hominis, ATCC14027, read-out: Minimum inhibiting concentration
# Text: as §1
# [10] = system: Neisseria gonorrhoeae ATCC 19424 LRP 214; assay: Bacteriostatic power in solid medium (MIC); settings: solid medium; for MIC: Neisseria gonorrhoeae, ATCC19424, read-out: Minimum inhibiting concentration
# Text: as §1
# [11] = system: Proteus vulgaris ATCC 6380 LRP 13; assay: Bacteriostatic power in solid medium (MIC); settings: solid medium; for MIC: Proteus vulgaris, ATCC6380, read-out: Minimum inhibiting concentration
# Text: as §1
# [12] = system: Pseudomonas aeruginosa LRP 9; assay: Bacteriostatic power in solid medium (MIC); settings: solid medium; for MIC: Pseudomonas aeruginosa, LRP9, read-out: Minimum inhibiting concentration
# Text: as §1
# Shigella sonnei LRP 5 = assay: Bacteriostatic power in solid medium (MIC); settings: LRP5, read-out: Minimum inhibiting concentration
# Text: as §1
# [13] = system: Staphylococcus aureus ATCC 14154 LRP 78; assay: Bacteriostatic power in solid medium (MIC); settings: for MIC: Staphylococcus aureus, ATCC14154, read-out: Minimum inhibiting concentration
# Text: as §1
# [14] = system: Staphylococcus aureus ATCC 6538P LRP 14; assay: Bacteriostatic power in solid medium (MIC); settings: solid medium, Penycilline resistant; for MIC: Staphylococcus aureus, ATCC6538P, read-out: Minimum inhibiting concentration
# Text: as §1
# [15] = system: Staphylococcus aureus ATCC 6538P LRP 39; assay: Bacteriostatic power in solid medium (MIC); settings: solid medium; for MIC: Staphylococcus aureus, ATCC6538P, read-out: Minimum inhibiting concentration
# Text: as §1
# [16] = system: Streptococcus faecalis LRP 7; assay: Bacteriostatic power in solid medium (MIC); settings: solid medium; for MIC: Enterococcus faecalis, LRP7, read-out: Minimum inhibiting concentration
# Text: as §1
# [17] = system: Streptococcus faecalis subsp. zymogenes ATCC 12958 LRP 61; assay: Bacteriostatic power in solid medium (MIC); settings: solid medium; for MIC: Enterococcus faecalis, ATCC12958, read-out: Minimum inhibiting concentration
# Text: as §1
# [18] = system: Streptococcus pneumoniae ATCC 6303 LRP 35; assay: Bacteriostatic power in solid medium (MIC); settings: solid medium; for MIC: Streptococcus pneumoniae, ATCC6303, read-out: Minimum inhibiting concentration
# Text: as §1
# [19] = system: Streptococcus pneumoniae ATCC 6303 LRP 52; assay: Bacteriostatic power in solid medium (MIC); settings: solid medium; for MIC: Streptococcus pneumoniae, ATCC6303, read-out: Minimum inhibiting concentration
# Text: as §1
# [20] = system: Streptococcus pneumoniae ATCC 6303 LRP 53; assay: Bacteriostatic power in solid medium (MIC); settings: solid medium; for MIC: Streptococcus pneumoniae, ATCC6303, read-out: Minimum inhibiting concentration
# Text: as §1
# [21] = system: Streptococcus pyogenes ATCC 8668 LRP 197; assay: Bacteriostatic power in solid medium (MIC); settings: solid medium; for MIC: Streptococcus pyogenes, ATCC8668, read-out: Minimum inhibiting concentration
# Text: as §1
# [22] = system: Streptococcus pyogenes ATCC 8668 LRP 34; assay: Bacteriostatic power in solid medium (MIC); settings: solid medium; for MIC: Streptococcus pyogenes, ATCC8668, read-out: Minimum inhibiting concentration
# Text: as §1
# [23] = system: Clostridium perfrigens ATCC 3624 LRP 206; assay: microbe, parasite or virus in culture; settings: ATCC3624, solid medium, anaerobic, read-out: Minimum inhibiting concentration
# Text: as §1
# Salmonella typhy LRP 8 = assay: microbe, parasite or virus in culture; settings: LRP8, solid medium, read-out: Minimum inhibiting concentration
# Text: as §1
# [24] = system: Corynebacterium diphteriae LRP 24; assay: Bacteriostatic power in liquid medium (MIC); settings: liquid medium; for MIC: Corynebacterium, LRP24, read-out: Minimum inhibiting concentration
# Text: as §1
# [25] = system: Staphylococcus aureus ATCC 6538 P LRP 39; assay: Bacteriostatic power in liquid medium (MIC); settings: liquid medium; for MIC: Staphylococcus aureus, ATCC6538, read-out: Minimum inhibiting concentration
# Text: as §1
# [26] = system: Streptococcus faecalis subs. zymogenes ATCC 12958 LRP 61; assay: Bacteriostatic power in liquid medium (MIC); settings: liquid medium; for MIC: Enterococcus faecalis, ATCC12958, read-out: Minimum inhibiting concentration
# Text: as §1
# [27] = system: Streptococcus pneumoniae ATCC 6303 LRP 35; assay: Bacteriostatic power in liquid medium (MIC); settings: liquid medium; for MIC: Streptococcus pneumoniae, ATCC6303, read-out: Minimum inhibiting concentration
# Text: as §1
# [28] = system: Streptococcus pyogenes ATCC 8668 LRP 34; assay: Bacteriostatic power in liquid medium (MIC); settings: liquid medium; for MIC: Streptococcus pyogenes, ATCC8668, read-out: Minimum inhibiting concentration
# Text: as §1
# [29] = system: Corynebacterium diphteriae LRP 24; assay: Minimum bactericidal concentration (MBC); settings: for MBC: Corynebacterium, LRP24, read-out: Minimum bactericidal concentration (MBC)
# Text: (§2) the bacterial power, expressed as the minimum bactericidal power (MBC) against some Gram positive aerobic stocks (table 5).
# [30] = system: Staphylococcus aureus ATCC 6538 P LRP 39; assay: Minimum bactericidal concentration (MBC); settings: for MBC: Staphylococcus aureus, ATCC6538, read-out: Minimum bactericidal concentration (MBC)
# Text: as §2
# [31] = system: Streptococcus faecalis subs. zymogenes LRP 61; assay: Minimum bactericidal concentration (MBC); settings: for MBC: Enterococcus faecalis, read-out: Minimum bactericidal concentration (MBC)
# Text: as §2
# [32] = system: Streptococcus pneumoniae ATCC 6303 LRP 35; assay: Minimum bactericidal concentration (MBC); settings: for MBC: Streptococcus pneumoniae, ATCC6303, read-out: Minimum bactericidal concentration (MBC)
# Text: as §2
# [33] = system: Streptococcus pyogenes ATCC 8668 LRP 34; assay: Minimum bactericidal concentration (MBC)
# Text: as §2
molecule,measurement,setting,value
"CC[C@H]1OC(=O)[C@H](C)[C@@H](O[C@H]2C[C@@](C)(OC)[C@@H](O)[C@H](C)O2)[C@H](C)[C@@H](O[C@@H]2O[C@H](C)C[C@H](N(C)C)[C@H]2O)[C@](C)(O)C[C@@H](C)C(=O)[C@H](C)[C@@H](O)[C@H]1C [Erythromycin B, reference compound]",MIC,[1],0.097 µg/mL
same,MIC,Bacillus subtilis LRP 25,0.049 µg/mL
same,MIC,[2],0.195 µg/mL
same,MIC,[3],0.012 µg/mL
same,MIC,Escherichia coli LRP 50,25 µg/mL
same,MIC,[4],6.25 µg/mL
same,MIC,[5],6.25 µg/mL
same,MIC,[6],25 µg/mL
same,MIC,[7],25 µg/mL
same,MIC,[8],0.006 µg/mL
same,MIC,[9],25 µg/mL
same,MIC,[10],0.097 µg/mL
same,MIC,[11],25 µg/mL
same,MIC,[12],25 µg/mL
same,MIC,Shigella sonnei LRP 5,25 µg/mL
same,MIC,[13],25 µg/mL
same,MIC,[14],0.195 µg/mL
same,MIC,[15],0.097 µg/mL
same,MIC,[16],0.195 µg/mL
same,MIC,[17],0.195 µg/mL
same,MIC,[18],0.024 µg/mL
same,MIC,[19],0.024 µg/mL
same,MIC,[20],0.024 µg/mL
same,MIC,[21],0.024 µg/mL
same,MIC,[22],0.024 µg/mL
same,MIC,[23],1.56 µg/mL
same,MIC,Salmonella typhy LRP 8,25 µg/mL
same,MIC,[24],0.012 µg/mL
same,MIC,[25],0.195 µg/mL
same,MIC,[26],0.39 µg/mL
same,MIC,[27],0.049 µg/mL
same,MIC,[28],0.024 µg/mL
same,MBC/MIC,[29],16
same,MBC,[29],0.195 µg/mL
same,MBC/MIC,[30],32
same,MBC,[30],6.25 µg/mL
same,MBC/MIC,[31],16
same,MBC,[31],6.25 µg/mL
same,MBC/MIC,[32],4
same,MBC,[32],0.195 µg/mL
same,MBC/MIC,[33],8
same,MBC,"[33]; Streptococcus pyogenes, ATCC8668; read-out: Minimum bactericidal concentration (MBC)",0.195 µg/mL
"CO[C@H]1C[C@H](O[C@H]2[C@H](C)[C@@H](O[C@@H]3O[C@H](C)C[C@H](N(C)C)[C@H]3O)[C@@H](C)C[C@@]3(CO3)C(=O)[C@H](C)[C@@H](O)[C@@H](C)[C@@H](C)OC(=O)[C@@H]2C)O[C@@H](C)[C@@H]1O [Oleandomycin, reference compound]",MIC,[1],6.25 µg/mL
same,MIC,Bacillus subtilis LRP 25,0.39 µg/mL
same,MIC,[2],0.39 µg/mL
same,MIC,[3],0.097 µg/mL
same,MIC,Escherichia coli LRP 50,25 µg/mL
same,MIC,[4],6.25 µg/mL
same,MIC,[5],25 µg/mL
same,MIC,[6],25 µg/mL
same,MIC,[7],25 µg/mL
same,MIC,[8],0.049 µg/mL
same,MIC,[9],25 µg/mL
same,MIC,[10],0.39 µg/mL
same,MIC,[11],25 µg/mL
same,MIC,[12],25 µg/mL
same,MIC,Shigella sonnei LRP 5,25 µg/mL
same,MIC,[13],25 µg/mL
same,MIC,[14],0.39 µg/mL
same,MIC,[15],0.39 µg/mL
same,MIC,[16],1.56 µg/mL
same,MIC,[17],1.56 µg/mL
same,MIC,[18],0.195 µg/mL
same,MIC,[19],0.195 µg/mL
same,MIC,[20],0.195 µg/mL
same,MIC,[21],0.195 µg/mL
same,MIC,[22],0.195 µg/mL
same,MIC,[23],3.12 µg/mL
same,MIC,Salmonella typhy LRP 8,25 µg/mL
same,MIC,[24],0.097 µg/mL
same,MIC,[25],0.39 µg/mL
same,MIC,[26],1.56 µg/mL
same,MIC,[27],0.195 µg/mL
same,MIC,[28],0.195 µg/mL
same,MBC/MIC,[29],4
same,MBC,[29],0.39 µg/mL
same,MBC/MIC,[30],16
same,MBC,[30],6.25 µg/mL
same,MBC/MIC,[31],> 8
same,MBC,[31],> 12.5 µg/mL
same,MBC/MIC,[32],4
same,MBC,[32],0.78 µg/mL
same,MBC/MIC,[33],16
same,MBC,"[33]; Streptococcus pyogenes, ATCC8668, read-out: Minimum bactericidal concentration (MBC)",3.12 µg/mL
(8S)-8-fluoroerythromycin A carbonate [P80206 carbonate],Minimum inhibiting concentration,[1],0.195 µg/mL
same,Minimum inhibiting concentration,Bacillus subtilis LRP 25,0.049 µg/mL
same,Minimum inhibiting concentration,[2],0.78 µg/mL
same,Minimum inhibiting concentration,[3],0.024 µg/mL
same,Minimum inhibiting concentration,Escherichia coli LRP 50,3.12 µg/mL
same,Minimum inhibiting concentration,[4],6.25 µg/mL
same,Minimum inhibiting concentration,[5]; solid medium,6.25 µg/mL
same,Minimum inhibiting concentration,[6],12.5 µg/mL
same,Minimum inhibiting concentration,[7],25 µg/mL
same,Minimum inhibiting concentration,[8],0.024 µg/mL
same,Minimum inhibiting concentration,[9],25 µg/mL
same,Minimum inhibiting concentration,[10],0.049 µg/mL
same,Minimum inhibiting concentration,[11],25 µg/mL
same,Minimum inhibiting concentration,[12],25 µg/mL
same,Minimum inhibiting concentration,"[13]; solid medium, Erythromycin resistant",25 µg/mL
same,Minimum inhibiting concentration,[14],0.097 µg/mL
same,Minimum inhibiting concentration,[15],0.097 µg/mL
same,Minimum inhibiting concentration,[16],0.097 µg/mL
same,Minimum inhibiting concentration,[17],0.097 µg/mL
same,Minimum inhibiting concentration,[18],0.012 µg/mL
same,Minimum inhibiting concentration,[19],0.012 µg/mL
same,Minimum inhibiting concentration,[20],0.012 µg/mL
same,Minimum inhibiting concentration,[21],0.024 µg/mL
same,Minimum inhibiting concentration,[22],0.012 µg/mL
same,Minimum inhibiting concentration,[24],0.024 µg/mL
same,Minimum inhibiting concentration,[25],0.39 µg/mL
same,Minimum inhibiting concentration,[26],0.195 µg/mL
same,Minimum inhibiting concentration,[27],0.049 µg/mL
same,Minimum inhibiting concentration,[28],0.024 µg/mL
